# Measured values as given in US20250140406A1, “CLASSIFYING TUMORS AND PREDICTING RESPONSIVENESS” (Oncocyte Corporation, priority 2022, published 2025).
# Legend:
# [1] = system: cancer cell lines classified IM, MSL, M; assay: PRISM screen compound sensitivity correlated with IM, MSL and M subtype of cell lines (101 gene signature); type: cell-based; details: for IM Corr test: correlation of PRISM compound sensitivity with IM subtype correlation; for M Corr test: correlation of PRISM compound sensitivity with M subtype correlation; for MSL Corr test: correlation of PRISM compound sensitivity with MSL subtype correlation; for TNBCType train: 101 gene signature
# [2] = system: cancer cell lines, DetermaIO classes; assay: Association of PRISM compound sensitivity with DetermaIO (DTIO) cell line classes; type: cell-based
# [3] = correlation of PRISM compound sensitivity with DTIO; test cell set
# [4] = correlation of PRISM compound sensitivity with DTIO; training cell set
# [5] = subtype (IM, MSL or M) assigned to the compound by negative correlation of PRISM sensitivity with subtype, training cell set (371 cell lines)
# [6] = correlation of PRISM compound sensitivity with DTIO (DetermaIO); test cell set (188 cell lines)
# [7] = correlation of PRISM compound sensitivity with DTIO (DetermaIO); training cell set (371 cell lines)
# [8] = correlation of compound sensitivity with DetermaIO (DTIO), test set
# [9] = correlation of compound sensitivity with DetermaIO (DTIO), training set
# [10] = subtype (IM, MSL or M) with which PRISM compound sensitivity is negatively correlated, training cell set
Compound,IM Corr test ([1]; test cell set),M Corr test ([1]; test cell set),MSL Corr test ([1]; test cell set),"DTIO Corr test [2, 3]","DTIO Corr train [2, 4]",IM Corr test ([1]; test cell set (188 cell lines)),M Corr test ([1]; test cell set (188 cell lines)),MSL Corr test ([1]; test cell set (188 cell lines)),"DTIO Corr test [2, 6]","DTIO Corr train [2, 7]",other results
O=[N+]([O-])c1cc(Cl)ccc1S(=O)(=O)N1CCN(Cc2ccccc2)CC1 [RN-1747],−0.1441,0.1428,0.1269,−0.09773,−0.1839,,,,,,
CC(C)c1cc(-c2ccc(F)c3ccccc23)nc(N)n1 [RS-127445],,,,,,0.05394,−0.1296,−0.05973,0.0427,0.05431,"TNBCType train [1, 5]: MSL"
O=c1[nH]ccc2cc(OC3CCNCC3)ccc12 [SAR407899],,,,,,0.003595,−0.1052,−0.2277,−0.00558,0.07673,"TNBCType train [1, 5]: MSL"
COC(=O)[C@H](NC(=O)c1cc(-c2ccccc2)nc2ccccc12)c1ccccc1 [SB-218795],,,,,,−0.01019,0.01779,−0.1047,−0.06114,−0.1377,
Cc1cccc(-c2[nH]c(C(C)(C)C)nc2-c2ccc3c(c2)OCO3)n1 [SB-505124],0.2475,−0.1987,−0.01627,0.1683,0.2562,,,,,,"DTIO Corr test [2, 8]: 0.1683; DTIO Corr train [2, 9]: 0.2562"
COc1ccc(S(=O)(=O)N2CCCN(S(=O)(=O)c3ccc(OC)c(OC)c3)CC2)cc1OC [SB-756050],−0.03347,−0.03952,0.01577,−0.06711,−0.07957,,,,,,
C=C(C)CN1CC[C@]23c4c5ccc(O)c4O[C@H]2c2[nH]c4ccccc4c2C[C@@]3(O)C1C5.Cl.O [SDM25N],,,,−0.165,−0.12,−0.1682,0.08807,−0.06407,,,
COc1cc2ncnc(Sc3nnc(C)s3)c2cc1OC [SKLB1002],0.0147,−0.00342,−0.05424,0.03788,0.02384,,,,,,"TNBCType train [1, 10]: MSL"
Cl.NC1CCN(c2cccc(Cl)n2)CC1 [SR-57227A],,,,0.01635,−0.1048,−0.02879,−0.08168,−0.00449,,,
Cc1nc(-c2cccnc2)sc1C(=O)Nc1ccccc1-c1cn2c(CN3CCOCC3)csc2n1 [SRT2104],−0.05657,0.06965,−0.08685,−0.05596,−0.07665,,,,,,"TNBCType train [1, 10]: MSL"
C[C@H](C[C@H](N)C(=O)O)C(=O)O [SYM-2081],,,,,,−0.08842,0.01603,0.05746,−0.1311,−0.0674,
CC(C)(O)CC(=O)NCCn1ccc2ncnc(Nc3ccc(Oc4cccc(C(F)(F)F)c4)c(Cl)c3)c21 [TAK-285],,,,,,−0.1598,0.2221,0.1785,−0.06872,−0.07158,DTIO Corr test ([2]; correlation of compound sensitivity with DTIO; test set): −0.06872; DTIO Corr train ([2]; correlation of compound sensitivity with DTIO; training set): −0.07158
N#Cc1c(Oc2ccc(F)c(NC(=O)Cc3cccc(C(F)(F)F)c3)c2)ccc2nc(NC(=O)C3CC3)sc12 [TAK-632],0.3042,−0.2709,0.04709,0.2089,0.08489,,,,,,"DTIO Corr test [2, 8]: 0.2089; DTIO Corr train [2, 9]: 0.08489; DTIO Corr test ([2]; correlation of compound sensitivity with DetermaIO (DTIO); test set): 0.2089; DTIO Corr train ([2]; correlation of compound sensitivity with DetermaIO (DTIO); training set): 0.08489"
Cc1cc(OCCCS(C)(=O)=O)cc(C)c1-c1cccc(COc2ccc3c(c2)OC[C@H]3CC(=O)O)c1 [TAK-875],,,,,,0.00946,−0.00346,−0.00217,−0.03291,0.03182,"TNBCType train [1, 5]: MSL"
CCN1/C(=C/C(C)=O)Sc2ccc(OC)cc21 [TG-003],,,,,,−0.1049,0.03396,−0.1032,,,"TNBCType train ([1]; subtype (IM, MSL or M) the PRISM compound sensitivity is associated with, training cell set (371 cell lines)): MSL; DTIO Corr test ([2]; correlation of PRISM compound sensitivity with DTIO; test cell set (188 cell lines)): −0.05387; DTIO Corr train ([2]; correlation of PRISM compound sensitivity with DTIO; training cell set (371 cell lines)): −0.04255"
